Assay results from patent US10519211B2, “Compounds as peptidic GLP1/glucagon/GIP receptor agonists” (SANOFI, priority 2016, dated 2019).
Numbered stars: 1 amine (or outer) side, 2 acyl side, 3 side chain; on linkers, the order of the positions; unused ones are H or OH. Square brackets hold non-standard residues; d marks the D form. Side chains are listed from the residue outwards. Peptide text beside a SMILES is read from it. * marks the point of attachment. γGlu = O=C(O)[C@H](CCC(=O)[*:2])N[*:1]; Palmitoyl = CCCCCCCCCCCCCCCC(=O)*; Aib = CC(C)(N)C(=O)O

Key:
[1] = Chemical stability assessment (UPLC-UV, relative purity loss); format: physicochemical; details: 1 mg/ml, 25 mM acetate buffer pH 4.5 with m-cresol (buffer system A)
In short: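 Peptide at 1 mg/mL (purity-corrected) in 25 mM acetate pH 4.5 with methionine, m-cresol and glycerol, sterile-filtered, stored 28 days at 40° C. Purity measured by UPLC-UV as peptide peak area fraction at start and after storage; value is relative percent purity loss.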

[2] = Thioflavin T (ThT) assay for physical stability (fibrillation); format: physicochemical; details: 3 mg/ml, 100 mM acetate pH 4.5 with m-cresol, shaking at 37° C.
In short: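 Peptide at 3 mg/ml with 100 μM ThT in 100 mM acetate pH 4.5 with m-cresol, stressed at 37° C by cycles of 10 s shaking at 960 rpm and 50 s rest. Fluorescence read every 20 minutes, eight replicates; lag time in hours.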

[3] = tested on: female, diabetic db/db mice; assay: Acute effects after subcutaneous treatment on blood glucose in non-fasting diabetic db/db mice; format: in vivo, mouse; details: for Blood glucose AUC compared to the Diabetic-Vehicle group: 24 h; for Plasma glucose area under the curve (mmol/L in 24 h): once 30 μg/kg s.c., mean ± SEM
Procedure: Female healthy, lean BKS.Cg-(lean)/OlaHsd and diabetes-prone, obese BKS.Cg-+Lepr^db/+Lepr^db/OlaHsd mice were ordered group housed from Envigo RMS Inc., shipped group housed and remained group housed in shoebox caging with wood chip bedding until day 15 of the predose phase. At the study start mice were approximately 12 weeks old.
Mice were housed under vivarium conditions including a 12 h light/dark cycle (light phase 04:00 AM-4:00 PM), room temperatures between 23-26° C. and a relative humidity between 30-70%. All animals had free access to water and Purina Fomulab Diet 5008.
On predose day 9 blood glucose and body mass (approximately between 08:00-10:00 AM) as well as HbA1c measurements were performed. On day 15 of the predose phase animals were assigned to treatment groups (n=8) and to new cages to match mean HbA1c and body masses between all db/db groups. An age-matched lean group was included in the study as a healthy, lean reference.
Prior to day 1 of the dosing phase, the test article was diluted with Phosphate Buffered Saline (PBS, Gibco, without CaCl2 and MgCl2) to a concentration of 1 mg/mL and aliquots of this stock solution were stored at approximately −60° C. On day 1 of the dosing phase the stock aliquot was thawed and the injected test article solution was prepared fresh by diluting it with PBS to achieve the desired concentration.
On Day 1 of the dosing phase db/db mice were either treated once with a s.c. injection of PBS-vehicle or 30 μg/kg test article. The lean reference group was treated once with a s.c. injection of PBS-vehicle. The dosing was initiated and completed between 08:00 and 10:00 AM. The applied volume was 5 ml/kg and the dose was adjusted to the most recent body mass recording of each individual.
Animals had unlimited access to water and feed during the experiment. On day 1 of the dosing phase approximately 5 μL of blood were collected via tail clips at minute −30 and 0 prior to any other inlife activities. At minute 0 mice received a s.c. dose of either PBS-vehicle or 30 μg/kg test article. Further blood samples were harvested at hour 0.25, 0.5, 1, 1.5, 2, 3, 4, 6, 8, and 24 post-dose. Glucose measurements were performed in whole blood using AlphaTRAK glucometers. If the glucose concentrations of two measurements differed by more than 20 mg/dL a third value was recorded. The Area Under the Curve (AUC) for blood glucose was calculated via the trapezoid method and for the duration of the 24 post-dose hours.
Data are depicted as means±SEM. […] A One-Way ANOVA and Tukey Test were used for pairwise multiple comparisons of all groups (n=8/group, deviations from group size are indicated). […] Data from a Non-Diabetic-Vehicle group serve as a reference dataset for the normoglycemic, lean state.
Female, 12 weeks old, healthy, lean BKS.Cg-(lean)/OlaHsd or diabetes-prone, obese BKS.Cg-+Leprdb/+Leprdb/OlaHsd mice were treated once with a s.c. injection of PBS, 30 μg/kg SEQ ID NO: 6 or 30 μg/kg SEQ ID NO: 7. The dosing was initiated and completed between 08:00 and 10:00 AM. The applied volume was 5 ml/kg and the dose was adjusted to the most recent body mass recording of each individual. Diabetic db/db mice were HbA1c- and body mass-matched. The lean reference group was treated once with a s.c. injection of PBS-vehicle.
Animals had unlimited access to water and feed during the experiment. On day 1 of the dosing phase approximately 5 μL of blood were collected via tail clips at minute −30 and 0 prior to any other inlife activities. At minute 0 mice received a s.c. dose of either PBS-vehicle, 30 μg/kg SEQ ID NO: 6 or SEQ ID NO: 7. Further blood samples were harvested at minute 15, 30, 60, 90, 120, 150, 180, 240, 360, and 480 post-dose. Glucose measurements were performed in whole blood using AlphaTRAK glucometers. If the glucose concentrations of two measurements differed by more than 20 mg/dL a third value was recorded. […]

[4] = 30 μg/kg s.c. once, fed db/db mice
[5] = 30 μg/kg s.c. once, fed db/db mice, in words

Compound: CCCCCCCCCCCCCCCC(=O)N[C@@H](CCC(=O)N[C@@H](CCC(=O)NCCCC[C@H](NC(=O)[C@H](CC(C)C)NC(=O)[C@H](CCCCN)NC(=O)[C@H](CO)NC(=O)[C@H](CC(C)C)NC(=O)[C@H](CC(=O)O)NC(=O)[C@H](CO)NC(=O)[C@@H](NC(=O)[C@H](Cc1ccccc1)NC(=O)[C@@H](NC(=O)CNC(=O)[C@H](CCC(N)=O)NC(=O)C(C)(C)NC(=O)[C@@H](N)Cc1c[nH]cn1)[C@@H](C)O)[C@@H](C)O)C(=O)N[C@@H](CCC(=O)O)C(=O)N[C@@H](CCCCN)C(=O)N[C@@H](CCC(N)=O)C(=O)N[C@@H](CCCNC(=N)N)C(=O)N[C@@H](CCC(N)=O)C(=O)NC(C)(C)C(=O)N[C@@H](CCC(=O)O)C(=O)N[C@@H](Cc1ccccc1)C(=O)N[C@H](C(=O)N[C@@H](CCC(=O)O)C(=O)N[C@@H](Cc1c[nH]c2ccccc12)C(=O)N[C@@H](CC(C)C)C(=O)N[C@@H](CCCCN)C(=O)N[C@@H](C)C(=O)N[C@H](C)C(=O)NCC(=O)N1CCC[C@H]1C(=O)N1CCC[C@H]1C(=O)N[C@@H](CO)C(=O)NC(C)(C)C(=O)N[C@@H](CCCCN)C(=O)N1CCC[C@H]1C(=O)N1CCC[C@H]1C(=O)N1CCC[C@H]1C(=O)N[C@@H](CCCCN)C(N)=O)[C@@H](C)CC)C(=O)O)C(=O)O [SEQ ID NO: 7, H-Aib-Q-G-T-F-T-S-D-L-S-K-L-K[gGlu-gGlu-Palm]-E-K-Q-R-Q-Aib-E-F-I-E-W-L-K-A-dAla-G-P-P-S-Aib-K-P-P-P-K-NH2] (H-H[Aib]QGTFTSDLSKLK([γGlu-γGlu-Palmitoyl])EKQRQ[Aib]EFIEWLKA[dA]GPPS[Aib]KPPPK-NH2)
- Chemical stability [relative purity loss 28 days 40° C.] (%) at pH 4.5 [1]: 6.8%
- Lag time before increase [2]: >45 h
- Blood glucose AUC compared to the Diabetic-Vehicle group ([3]; 30 μg/kg s.c. once, in words): statistically significant reduction in the blood glucose AUC
- Time post dose at which lowest blood glucose levels were reached [3, 4]: approximately 8 hours
- Blood glucose profile following single treatment [3, 5]: acute decrease in blood glucose concentrations
- Plasma glucose area under the curve (mmol/L in 24 h) ([3]; Table 10, fed db/db mice): +461.54 ± 39.43 mmol/L in 24 h

Compound: CCCCCCCCCCCCCCCC(=O)N[C@@H](CCC(=O)N[C@@H](CCC(=O)NCCCC[C@H](NC(=O)[C@H](CC(C)C)NC(=O)[C@H](CCCCN)NC(=O)[C@H](CO)NC(=O)[C@H](CC(C)C)NC(=O)[C@H](CC(=O)O)NC(=O)[C@H](CO)NC(=O)[C@@H](NC(=O)[C@H](Cc1ccccc1)NC(=O)[C@@H](NC(=O)CNC(=O)[C@H](CCC(N)=O)NC(=O)C(C)(C)NC(=O)[C@@H](N)Cc1c[nH]cn1)[C@@H](C)O)[C@@H](C)O)C(=O)N[C@@H](CCC(=O)O)C(=O)N[C@@H](CCCCN)C(=O)N[C@@H](CCC(N)=O)C(=O)N[C@@H](CCCNC(=N)N)C(=O)N[C@@H](CCC(N)=O)C(=O)NC(C)(C)C(=O)N[C@@H](CCC(=O)O)C(=O)N[C@@H](Cc1ccccc1)C(=O)N[C@H](C(=O)N[C@@H](CCC(=O)O)C(=O)N[C@@H](Cc1c[nH]c2ccccc12)C(=O)N[C@@H](CC(C)C)C(=O)N[C@@H](CCCCN)C(=O)N[C@@H](C)C(=O)N[C@H](C)C(=O)NCC(=O)N[C@@H](Cc1c[nH]cn1)C(=O)N1CCC[C@H]1C(=O)N[C@@H](CO)C(=O)NC(C)(C)C(=O)N[C@@H](CCCCN)C(=O)N1CCC[C@H]1C(=O)N1CCC[C@H]1C(=O)N1CCC[C@H]1C(=O)N[C@@H](CCCCN)C(N)=O)[C@@H](C)CC)C(=O)O)C(=O)O [SEQ ID NO: 13, H-Aib-Q-G-T-F-T-S-D-L-S-K-L-K[gGlu-gGlu-Palm]-E-K-Q-R-Q-Aib-E-F-I-E-W-L-K-A-dAla-G-H-P-S-Aib-K-P-P-P-K-NH2] (H-H[Aib]QGTFTSDLSKLK([γGlu-γGlu-Palmitoyl])EKQRQ[Aib]EFIEWLKA[dA]GHPS[Aib]KPPPK-NH2)
- Chemical stability [relative purity loss 28 days 40° C.] (%) at pH 4.5 [1]: 4.5%
- Lag time before increase [2]: >45 h
- Blood glucose AUC compared to the Diabetic-Vehicle group ([3]; 30 μg/kg s.c. once, in words): statistically significant reduction in the blood glucose AUC
- Time post dose at which lowest blood glucose levels were reached [3, 4]: approximately 8 hours
- Blood glucose profile following single treatment [3, 5]: acute decrease in blood glucose concentrations
- Mean blood glucose concentrations twenty four hours post-dose [3, 5]: close to baseline
- Plasma glucose area under the curve (mmol/L in 24 h) ([3]; Table 12, fed db/db mice): +458.34 ± 27.11 mmol/L in 24 h
